# Data from publication PMC7395068, “The evolution of strategies to minimise the risk of human drug-induced liver injury (DILI) in drug discovery and development” (Archives of Toxicology, 2020).
# Like-named read-outs stand apart in the source and are kept apart here.
# Tests used:
# [1] = tested on: THLE-Null and THLE-3A4 cells; settings: In vitro Assay; ref Gustafsson 2014; cited from earlier work
# HepG2 cells [2] = settings: cited from earlier work
# RMPCC's = settings: In vitro Assay; ref Khetani 2012; cited from earlier work
# HepG2 = tested on: HepG2; parameters: method as in Albrecht 2019; settings: In vitro Assay; ref Albrecht 2019; cited from earlier work
# [3] = read-out: Human plasma Cmax; total plasma Cmax.tot, median of 9 literature references; cited from earlier work
# [4] = tested on: isolated mouse liver mitochondria; settings: In vitro Assay; ref Porceddu 2012; cited from earlier work
# [5] = tested on: primary human hepatocytes, NIH3T3 fibroblasts, BSEP, CYP3A4; settings: cited from earlier work; for DILI in vitro assay prediction, Schadt (2015): BSEP & Metabolism based, ref Schadt et al. 2015
# PHH spheroids = settings: cited from earlier work
# HepaRG spheroids = assay: Combined HCI (HCS) and cellular ATP 3D assay in HepaRG spheroids; settings: for HepaRG <25x Avg Cmax ATP / HepaRG <100x Avg Cmaxu ATP: ATP endpoint; for HepaRG <25x Avg Cmax ATP / HepaRG <25x Avg Cmax HCS / HepaRG <25x Avg Cmax All: cut-off <25x Avg Cmax; for HepaRG <100x Avg Cmaxu ATP / HepaRG <100x Avg Cmaxu HCS / HepaRG <100x Avg Cmaxu All: cut-off <100x Avg Cmaxu; for HepaRG <25x Avg Cmax HCS / HepaRG <100x Avg Cmaxu HCS: HCS endpoints; for HepaRG <25x Avg Cmax All: all endpoints (ATP and HCS); for HepaRG Cmax max All / HepaRG Cmax min All / HepaRG <10 uM All / HepaRG <100x Avg Cmaxu All: all endpoints; for HepaRG Cmax max All: Cmax max used; for HepaRG Cmax min All: Cmax min used; for HepaRG <10 uM All: cut-off <10 uM; for AC50 / minimal effective concentration: Homo sapiens; for HepaRG <25x Avg Cmax ATP / HepaRG <100x Avg Cmaxu ATP / HepaRG <25x Avg Cmax HCS / HepaRG <100x Avg Cmaxu HCS / HepaRG <25x Avg Cmax All / HepaRG Cmax max All / HepaRG Cmax min All / HepaRG <10 uM All / HepaRG <100x Avg Cmaxu All / AC50 / minimal effective concentration: HepaRG; for DILI prediction HepaRG spheroids (HCS-MEC): Microtissue model structural based (HCI), combined HCS and ATP, MEC < 25 × Cmax.tot cut-off
# HepG2 cells [6] = settings: cited from earlier work; remark: listed apart in the source
# hLiMTs [7] = settings: cited from earlier work
# hu-MPCC = settings: In vitro Assay; ref Khetani 2012; cited from earlier work
# [8] = cited from earlier work
# human hepatocytes = settings: cited from earlier work
# [9] = in vivo; cited from earlier work
# hLiMTs [10] = assay: Combined HCI (HCS) and cellular ATP 3D assay in hLiMTs; settings: for AC50 / minimal effective concentration: Homo sapiens; for DILI prediction hLiMTs (HCS-MEC): Microtissue model structural based (HCI), combined HCS and ATP, MEC < 25 × Cmax.tot cut-off; for hLiMTs <25x Avg Cmax ATP / hLiMTs <100x Avg Cmaxu ATP: ATP endpoint; for hLiMTs <25x Avg Cmax ATP / hLiMTs <25x Avg Cmax HCS / hLiMTs <25x Avg Cmax All: cut-off <25x Avg Cmax; for hLiMTs <100x Avg Cmaxu ATP / hLiMTs <100x Avg Cmaxu HCS / hLiMTs <100x Avg Cmaxu All: cut-off <100x Avg Cmaxu; for hLiMTs <25x Avg Cmax HCS / hLiMTs <100x Avg Cmaxu HCS: HCS endpoints; for hLiMTs <25x Avg Cmax All: all endpoints (ATP and HCS); for hLiMTs Cmax max All / hLiMTs Cmax min All / hLiMTs <10 uM All / hLiMTs <100x Avg Cmaxu All: all endpoints; for hLiMTs Cmax max All: Cmax max used; for hLiMTs Cmax min All: Cmax min used; for hLiMTs <10 uM All: cut-off <10 uM
# PHH [11] = settings: In vitro Assay; ref Albrecht 2019; cited from earlier work
# [12] = Plasma free fraction (fu) and unbound Cmax (Cmax,u); format: in vitro ADME, human; settings: unbound plasma Cmax
# Protocol: The prediction of DILI severity was evaluated further using the 3D combined HCI assays using plasma-free fraction. The majority of fu values were obtained from literature, when unavailable in-house prediction was utilised. Unbound plasma Cmax concentrations (Cmax,u) were derived by multiplying total plasma Cmax with the corresponding free fraction (fu) for each compound.
# HepG2 cells [13] = settings: cited from earlier work; remark: listed apart in the source
# [14] = plasma free fraction; cited from earlier work
# PHH 3D spheroids = tested on: PHH 3D spheroids; parameters: method as in Bell et al. 2018; settings: 14-day exposure, three donors, ref Bell et al. 2018; cited from earlier work
# [15] = cited from earlier work; remark: listed apart in the source
# PHH [16] = settings: cited from earlier work
# [17] = tested on: THLE or HepG2 cells, isolated mitochondria, BSEP; settings: cited from earlier work
# [18] = tested on: HepG2 C3A spheroid, BSEP, Glu/Gal in HepG2 cells, bioactivation; settings: Bayesian modeling; ref Williams et al. 2019; cited from earlier work
# OATP1B1 = settings: known substrates; cited from earlier work
# [19] = In vitro Assay, ref Schadt 2015
# [20] = In vitro Assay, ref Proctor 2017
# [21] = HCS endpoints only, 25 × Cmax.tot cut-off
# [22] = Modeled in vitro assays (cytotoxicity, mitochondrial dysfunction, BSEP), ref Aleo et al. 2019
smiles,measurement,setting,value
O=C(O)Cc1ccccc1Nc1c(Cl)cccc1Cl [diclofenac],THLE-Null,[1],+VE
same,Structural based (HCI),"HepG2 cells [2]; In vitro Assay, ref O'Brien 2006",+VE
same,"DILI in vitro assay prediction, O'Brien (2006)",HepG2 cells [2],+VE (key: +VE: lowest HCI endpoint IC50 (or in the absence of dose–response < 100 µM) < 30 × total human plasma exposure levels (Cmax.tot))
same,RMPCC's,RMPCC's,+VE
same,Cytotoxicity HepG2 48 hrs,HepG2,+VE
same,Cmax,[3],10.1 µM
same,in vitro data EC2<=1x Cmax,[4],+VE
same,"DILI in vitro assay prediction, Schadt (2015)",[5],+VE
same,Cellular toxicity (3T3 cells),[5]; [19],-VE
same,Combined Assay,[5]; [19],+VE
same,GSH adduct HML,[5]; [19],+VE
same,Hepatocyte cellular toxicity,[5]; [19],-VE
same,MitoTox 3T3,[5]; [19],-VE
same,TDI CYP3A4,[5]; [19],-VE
same,hBSEP inhibition,[5]; [19],-VE
same,hLiMTs ATP <20 x Cmax,"PHH spheroids; In vitro Assay, ref Vorrink 2018",+VE (IC20 < 20 × Cmax.tot cut-off)
same,"DILI in vitro assay prediction, Vorrink (2018)",PHH spheroids,+VE (key: +VE: IC20 < 20 × Cmax.tot cut-off)
same,HepaRG <25x Avg Cmax ATP,HepaRG spheroids,+ve
same,HepaRG <100x Avg Cmaxu ATP,HepaRG spheroids,-ve
same,HepaRG <25x Avg Cmax HCS,HepaRG spheroids,+ve
same,HepaRG <100x Avg Cmaxu HCS,HepaRG spheroids,-ve
same,HepaRG <25x Avg Cmax All,HepaRG spheroids,+ve
same,HepaRG Cmax max All,HepaRG spheroids,+ve
same,HepaRG Cmax min All,HepaRG spheroids,+ve
same,HepaRG <10 uM All,HepaRG spheroids,-ve
same,HepaRG <100x Avg Cmaxu All,HepaRG spheroids,-ve
same,AC50,HepaRG spheroids; read-out: ATP endpoint AC50,78 µM
same,minimal effective concentration,HepaRG spheroids; read-out: ATP endpoint MEC,38.2 µM
same,AC50,HepaRG spheroids; read-out: HCS endpoint AC50,98.6 µM
same,minimal effective concentration,HepaRG spheroids; read-out: HCS endpoint MEC,42.9 µM
same,DILI prediction HepaRG spheroids (HCS-MEC),HepaRG spheroids,+VE (MEC < 25 × Cmax.tot cut-off)
same,Structural based (HCI),"HepG2 cells [6]; In vitro Assay, ref Tolosa 2012",+VE
same,"DILI in vitro assay prediction, Tolosa (2012)",HepG2 cells [6],+VE
same,hLiMTs ATP <100uM,hLiMTs [7]; [20],+VE (IC50 threshold of 100 µM)
same,"hLiMTs/100uM, Proctor (2017)","hLiMTs [7]; hLiMTs, ATP, IC50 threshold 100 µM, ref Proctor et al. 2017",+VE (IC50 threshold of 100 µM)
same,HMPCC's,hu-MPCC,+VE
same,Assigned DILI category,[8]; in vivo,3
same,In vivo DILI,[8]; in vivo,+VE
same,"DILI in vitro assay prediction, Xu (2008)",human hepatocytes,+VE
same,DILI Score (FDA) (1-8),[9],7
same,AC50,hLiMTs [10]; read-out: ATP endpoint AC50,62.1 µM
same,minimal effective concentration,hLiMTs [10]; read-out: ATP endpoint MEC,17.2 µM
same,AC50,hLiMTs [10]; read-out: HCS endpoint AC50,293 µM
same,minimal effective concentration,hLiMTs [10]; read-out: HCS endpoint MEC,45 µM
same,DILI prediction hLiMTs (HCS-MEC),hLiMTs [10],+VE (MEC < 25 × Cmax.tot cut-off)
same,hLiMTs <25x Avg Cmax ATP,hLiMTs [10],+ve
same,hLiMTs <100x Avg Cmaxu ATP,hLiMTs [10],-ve
same,hLiMTs <25x Avg Cmax HCS,hLiMTs [10],+ve
same,hLiMTs <100x Avg Cmaxu HCS,hLiMTs [10],-ve
same,hLiMTs <25x Avg Cmax All,hLiMTs [10],+ve
same,hLiMTs Cmax max All,hLiMTs [10],+ve
same,hLiMTs Cmax min All,hLiMTs [10],+ve
same,hLiMTs <10 uM All,hLiMTs [10],-ve
same,hLiMTs <100x Avg Cmaxu All,hLiMTs [10],-ve
same,Cytotoxicity PHH 48 hrs,PHH [11],+VE
same,"Human plasma Cmax,u",[12],0.101 µM
same,Structural based (HCI),"HepG2 cells [13]; In vitro Assay, ref Persson 2013",-VE
same,Cluser analysis,HepG2 cells [13],-VE
same,"DILI in vitro assay prediction, Persson (2013)",HepG2 cells [13],-VE
same,fu,[14],0.010
same,detection at 10 × Cmax.tot cut-off,PHH 3D spheroids,only detected by one of three donors
same,"DILI +VE (5-8), DILI -VE (-4)",[15]; in vivo,+VE
same,DILI severity category (Chen et al. [2016]),[15]; in vivo,Most
same,"PHH/100uM, Proctor (2017)","PHH [16]; 2D PHH, ATP, IC50 threshold 100 µM, ref Proctor et al. 2017",-VE
same,PHH ATP <100uM,PHH [16]; [20],-VE
same,Ro2 Hybrid HRM Score,[17],+VE
Cc1cc2c(cc1CC(=O)c1sccc1S(=O)(=O)Nc1onc(C)c1Cl)OCO2 [sitaxsentan],Cmax,[3],25.3 µM
same,"Bayesian Machine Learning DILI prediction, Williams (2019)",[18],+VE
same,"DILI in vitro assay prediction, Schadt (2015)",[5],+VE
same,"DILI prediction HepaRG spheroids, HCI alone",HepaRG spheroids; [21],positive
same,HepaRG <25x Avg Cmax ATP,HepaRG spheroids,-ve
same,HepaRG <100x Avg Cmaxu ATP,HepaRG spheroids,-ve
same,HepaRG <25x Avg Cmax HCS,HepaRG spheroids,+ve
same,HepaRG <100x Avg Cmaxu HCS,HepaRG spheroids,+ve (<100x Avg Cmaxu)
same,HepaRG <25x Avg Cmax All,HepaRG spheroids,+ve
same,HepaRG Cmax max All,HepaRG spheroids,+ve
same,HepaRG Cmax min All,HepaRG spheroids,+ve
same,HepaRG <10 uM All,HepaRG spheroids,+ve (<10 uM)
same,HepaRG <100x Avg Cmaxu All,HepaRG spheroids,+ve (<100x Avg Cmaxu)
same,AC50,HepaRG spheroids; read-out: HCS endpoint AC50,9.74 µM
same,minimal effective concentration,HepaRG spheroids; read-out: HCS endpoint MEC,8.53 µM
same,DILI prediction HepaRG spheroids (HCS-MEC),HepaRG spheroids,+VE (MEC < 25 × Cmax.tot cut-off)
same,"hLiMTs/100xCmax, Proctor (2017)","hLiMTs [7]; hLiMTs, ATP, IC50 < 100 × Cmax.tot, ref Proctor et al. 2017",+VE (IC50 < 100 × Cmax.tot)
same,Assigned DILI category,"[8]; Chen et al. 2016 or literature alignment, ref Chen et al. 2016",3
same,substrate for hepatic uptake transporter OATP1B1,OATP1B1,known substrates
same,"DILI prediction hLiMTs, HCI alone",hLiMTs [10]; [21],detection
same,minimal effective concentration,hLiMTs [10]; read-out: HCS endpoint MEC,130 µM
same,DILI prediction hLiMTs (HCS-MEC),hLiMTs [10],+VE (MEC < 25 × Cmax.tot cut-off)
same,"DILI prediction hLiMTs, ATP alone","hLiMTs [10]; cellular ATP only, 25 × Cmax.tot cut-off",unpredicted
same,hLiMTs <25x Avg Cmax ATP,hLiMTs [10],-ve
same,hLiMTs <100x Avg Cmaxu ATP,hLiMTs [10],-ve
same,hLiMTs <25x Avg Cmax HCS,hLiMTs [10],+ve
same,hLiMTs <100x Avg Cmaxu HCS,hLiMTs [10],-ve
same,hLiMTs <25x Avg Cmax All,hLiMTs [10],+ve
same,hLiMTs Cmax max All,hLiMTs [10],+ve
same,hLiMTs Cmax min All,hLiMTs [10],+ve
same,hLiMTs <10 uM All,hLiMTs [10],-ve
same,hLiMTs <100x Avg Cmaxu All,hLiMTs [10],-ve
same,"Human plasma Cmax,u",[12],0.126 µM
same,fu,[14],0.005
same,DILI severity category (Chen et al. [2016]),"[15]; LTKB DILIrank category, ref Chen et al. 2016",Most
same,DILI severity category (Chen 2016),"[15]; human DILI classification, LTKB DILIrank, ref Chen et al. 2016",Most
same,DILI severity category,"[15]; human DILI severity, ref Chen et al.",Most
same,"Partition Hybrid HRM Score ≥4, Aleo (2019)",[17]; [22],+VE (Partition Hybrid HRM Score ≥4)
same,"Partition Hybrid HRM Score ≥8, Aleo (2019)",[17]; [22],+VE (Partition Hybrid HRM Score ≥8)
same,"Rule of Two hybrid HRM Score ≥3, Aleo (2019)",[17]; [22],+VE (Rule of Two hybrid HRM Score ≥3)
same,"Rule of Two hybrid HRM Score ≥8, Aleo (2019)",[17]; [22],+VE (Rule of Two hybrid HRM Score ≥8)
